Reference: paper PMC7689250, “Synthetic Peptide Libraries Designed From a Minimal Alpha-Helical Domain of AS-48-Bacteriocin Homologs Exhibit Potent Antibacterial Activity” (Frontiers in Microbiology, 2020)
Like-named read-outs stand apart in the source and are kept apart here. Residues, ends and D or L forms follow the SMILES beside them.

Legend:
[1] = tested on: E. coli (BL21); assay type: cell-based, Escherichia coli
Method: (§1) Peptides were screened against Escherichia coli (BL21), Streptococcus pyogenes (M1T1 5448, hereby referred to as M1), Pseudomonas aeruginosa (PAO1), and Staphylococcus aureus (USA300). Overnight bacterial cultures were grown in optimal media for each species: Luria-Bertani (LB) broth for E. coli, P. aeruginosa, and S. aureus, and Todd-Hewitt (TH) broth for S. pyogenes. Cultures were pelleted and re-suspended in Mueller-Hinton (MH) broth for peptide screens or minimal inhibitory concentration (MIC) assays, with 1 × 10^6 CFU/mL bacteria added per well ([Wiegand et al., 2008]). MICs for each parent peptide were identified against each bacterial strain as previously described ([Fields et al., 2018]). Members of each peptide library were screened against each bacterial strain at half of the MIC of the corresponding parent peptide to identify library members with increased antimicrobial activity relative to the parent peptide. […] Minimal bactericidal concentrations (MBCs) were determined following the respective MIC assays by plating aliquots from wells corresponding to each peptide concentration from the 96-well plate used for the MIC on species-appropriate agar. Plates were incubated at 37°C overnight, and MBCs were identified as the lowest concentrations of peptide at which no colonies were obtained. A Synergy H1 Microplate Reader (BioTek, Winooski, VT, United States) was used to determine the MICs and identify peptides with greater antimicrobial activity than the corresponding parent peptide by measuring OD 600 of the bacterial cultures in 96-well microtiter plates.

[2] = tested on: S. pyogenes (M1); assay type: cell-based, Streptococcus pyogenes; settings: for MBC: M1
Method: as §1

[3] = tested on: S. aureus (USA300); assay type: cell-based, Staphylococcus aureus; settings: for MBC: USA300; for MIC: USA300, 16 h
Method: as §1

[4] = tested on: P. aeruginosa (PAO1); assay type: cell-based, Pseudomonas aeruginosa; settings: for MBC: PAO1; for MIC: PAO1, 16 h
Method: as §1

[5] = tested on: sheep erythrocytes; assay type: cell-based; settings: red cells of sheep, 1 h
Method: To determine if peptide variants were hemolytic, fresh defibrinated whole sheep blood (Hardy Diagnostics) was washed three times in cold PBS, and washed blood was diluted 1:25 in PBS. Treatments were applied at a 1:10 ratio of sample:blood, where the sample was either 10% Triton, PBS, or a specific peptide concentration corresponding to concentrations used in the MIC assays. Treatments were incubated with the blood for 1 h at 37°C. Following incubation, samples were centrifuged at […] for 10 min at 4°C, and the absorbance of the supernatants at 450 nm was measured on the Synergy H1 Microplate Reader to measure the release of hemoglobin. Percent hemolysis was quantified by normalizing to the negative and positive controls.

SMILES	MBC ([1]; BL21) [µM]	MIC ([1]; BL21, 16 h) [µM]	MBC [2] [µM]	MIC ([2]; M1, 16 h) [µM]	MBC [3] [µM]	MIC [3] [µM]	MBC [4] [µM]	MIC [4] [µM]	Percent Hemolysis [5] [%]	MIC ([2]; S. pyogenes M1) [µM]	MBC ([1]; E. coli BL21) [µM]	MIC ([1]; E. coli BL21) [µM]
CC[C@H](C)[C@H](NC(=O)[C@H](Cc1ccccc1)NC(=O)[C@H](C)NC(=O)[C@H](CCCCN)NC(=O)[C@H](CCCCN)NC(=O)CNC(=O)[C@H](CCCNC(=N)N)NC(=O)[C@H](CCCCN)NC(=O)[C@H](CCCNC(=N)N)NC(=O)[C@H](CC(C)C)NC(=O)[C@H](CCC(=O)O)NC(=O)[C@H](CCC(=O)O)NC(=O)[C@H](CC(C)C)NC(=O)[C@H](CC(C)C)NC(=O)[C@H](Cc1ccc(O)cc1)NC(=O)[C@H](CCCCN)NC(=O)[C@@H](NC(=O)[C@H](CC(C)C)NC(=O)[C@H](C)NC(=O)[C@H](CCC(N)=O)NC(=O)[C@H](CCCNC(=N)N)NC(=O)[C@H](CCCCN)NC(=O)[C@H](C)N)[C@@H](C)O)C(=O)N[C@@H](C)C(=O)N[C@@H](Cc1c[nH]c2ccccc12)C(=O)O [Syn-xiamencin-92] (H-AKRQALTKYLLEELRKRGKKAFIAW-OH; N-terminus and C-terminus assumed)	8	4	8	4	8	8	16	16	18.8			
CC[C@H](C)[C@H](NC(=O)[C@H](CCCCN)NC(=O)[C@H](CCCCN)NC(=O)[C@H](CCCCN)NC(=O)[C@H](CC(C)C)NC(=O)[C@H](Cc1ccccc1)NC(=O)[C@H](CCC(N)=O)NC(=O)[C@H](CCCNC(=N)N)NC(=O)[C@@H](NC(=O)[C@@H](NC(=O)[C@H](CCC(=O)O)NC(=O)[C@H](CCCCN)NC(=O)CNC(=O)[C@H](C)N)[C@@H](C)O)[C@@H](C)CC)C(=O)N[C@@H](CCC(N)=O)C(=O)N[C@@H](CCC(=O)O)C(=O)N[C@@H](Cc1c[nH]c2ccccc12)C(=O)N[C@@H](CCCCN)C(=O)N[C@@H](CCCCN)C(=O)N[C@@H](CCCNC(=N)N)C(=O)N[C@@H](C)C(=O)N[C@H](C(=O)N[C@H](C(=O)N[C@@H](C)C(=O)N[C@@H](Cc1c[nH]c2ccccc12)C(=O)O)[C@@H](C)CC)[C@@H](C)O [Syn-larvacin-44] (H-AGKETIRQFLKKKIQEWKKRATIAW-OH; N-terminus and C-terminus assumed)	1	0.5	0.5	0.5	32	32	32	16	20.9			
CC[C@H](C)[C@H](NC(=O)[C@H](Cc1ccc(O)cc1)NC(=O)[C@H](CCCCN)NC(=O)[C@H](CCCCN)NC(=O)[C@H](CC(C)C)NC(=O)[C@H](CCC(=O)O)NC(=O)[C@H](CCCCN)NC(=O)[C@H](Cc1c[nH]c2ccccc12)NC(=O)[C@@H](NC(=O)[C@H](CCCNC(=N)N)NC(=O)[C@H](CCC(=O)O)NC(=O)[C@H](CO)NC(=O)CNC(=O)[C@H](C)N)[C@@H](C)CC)C(=O)N[C@@H](CCCCN)C(=O)N[C@@H](CCCCN)C(=O)NCC(=O)N[C@@H](CCCCN)C(=O)N[C@@H](CCCCN)C(=O)N[C@H](C(=O)N[C@H](C(=O)N[C@@H](CCCNC(=N)N)C(=O)N[C@@H](C)C(=O)N[C@@H](C)C(=O)N[C@@H](Cc1c[nH]c2ccccc12)C(=O)O)[C@@H](C)CC)C(C)C [Syn-enterocin-24] (H-AGSERIWKELKKYIKKGKKVIRAAW-OH; N-terminus and C-terminus assumed)	2	2	16	16	>128	64	16	8	10.5			
CC[C@H](C)[C@H](NC(=O)[C@H](CCCNC(=N)N)NC(=O)[C@H](CCC(N)=O)NC(=O)[C@@H](NC(=O)CNC(=O)[C@@H](N)Cc1c[nH]c2ccccc12)[C@@H](C)O)C(=O)N[C@@H](CCCCN)C(=O)N[C@@H](C)C(=O)N[C@@H](Cc1ccc(O)cc1)C(=O)N[C@@H](CC(C)C)C(=O)N[C@@H](CCCNC(=N)N)C(=O)N[C@@H](CCCNC(=N)N)C(=O)N[C@@H](CCC(=O)O)C(=O)N[C@H](C(=O)N[C@@H](CCCNC(=N)N)C(=O)N[C@@H](CCCCN)C(=O)N[C@@H](CCCNC(=N)N)C(=O)NCC(=O)N[C@@H](CCCNC(=N)N)C(=O)N[C@@H](CCCCN)C(=O)N[C@@H](C)C(=O)N[C@H](C(=O)N[C@H](C(=O)N[C@@H](C)C(=O)N[C@@H](Cc1c[nH]c2ccccc12)C(=O)O)[C@@H](C)CC)C(C)C)[C@@H](C)CC [Syn-sordellicin-11] (H-WGTQRIKAYLRREIRKRGRKAVIAW-OH; N-terminus and C-terminus assumed)	2	2	0.5		>128	>128	8	8	21.3	0.5		
CC[C@H](C)[C@H](NC(=O)[C@H](Cc1ccccc1)NC(=O)[C@H](C)NC(=O)[C@H](CCCCN)NC(=O)[C@H](CCCCN)NC(=O)CNC(=O)[C@H](CCCNC(=N)N)NC(=O)[C@H](CCCCN)NC(=O)[C@H](CCCNC(=N)N)NC(=O)[C@H](CC(C)C)NC(=O)[C@H](Cc1ccc(O)cc1)NC(=O)[C@H](CCC(=O)O)NC(=O)[C@H](CCCCN)NC(=O)[C@H](CC(C)C)NC(=O)[C@H](CCC(=O)O)NC(=O)[C@H](CC(C)C)NC(=O)[C@@H](NC(=O)[C@H](CC(C)C)NC(=O)[C@H](CCCCN)NC(=O)[C@H](CCC(N)=O)NC(=O)[C@H](CCCNC(=N)N)NC(=O)CNC(=O)[C@H](C)N)[C@@H](C)O)C(=O)N[C@@H](C)C(=O)N[C@@H](Cc1c[nH]c2ccccc12)C(=O)O [Syn-xiamencin-83] (H-AGRQKLTLELKEYLRKRGKKAFIAW-OH; N-terminus and C-terminus assumed)	32	16	4	4	>128	>128	>128	128	10.7			
CC[C@H](C)[C@H](NC(=O)[C@H](Cc1ccccc1)NC(=O)[C@H](C)NC(=O)[C@H](CCCCN)NC(=O)[C@H](CCCCN)NC(=O)CNC(=O)[C@H](CCCNC(=N)N)NC(=O)[C@H](CCCCN)NC(=O)[C@H](CCCNC(=N)N)NC(=O)[C@H](CC(C)C)NC(=O)[C@H](CCC(=O)O)NC(=O)[C@H](CCC(=O)O)NC(=O)[C@H](CCCCN)NC(=O)[C@H](CC(C)C)NC(=O)[C@H](Cc1ccc(O)cc1)NC(=O)[C@H](CC(C)C)NC(=O)[C@@H](NC(=O)[C@H](CC(C)C)NC(=O)[C@H](C)NC(=O)[C@H](CCC(N)=O)NC(=O)[C@H](CCCNC(=N)N)NC(=O)CNC(=O)[C@H](C)N)[C@@H](C)O)C(=O)N[C@@H](Cc1c[nH]c2ccccc12)C(=O)N[C@@H](Cc1c[nH]c2ccccc12)C(=O)O [Syn-xiamencin-57] (H-AGRQALTLYLKEELRKRGKKAFIWW-OH; N-terminus and C-terminus assumed)	16	16	8	4	32	16	>128	>128	17.0			
CC[C@H](C)[C@H](NC(=O)[C@H](CCCNC(=N)N)NC(=O)CNC(=O)[C@@H](NC(=O)[C@H](CCCCN)NC(=O)[C@H](CCCNC(=N)N)NC(=O)[C@@H](NC(=O)[C@H](Cc1ccc(O)cc1)NC(=O)[C@H](CCCNC(=N)N)NC(=O)[C@H](CCCNC(=N)N)NC(=O)[C@H](CC(C)C)NC(=O)[C@H](CCC(=O)O)NC(=O)[C@H](CCCCN)NC(=O)[C@H](C)NC(=O)[C@@H](NC(=O)[C@H](CCCNC(=N)N)NC(=O)[C@H](CC(N)=O)NC(=O)[C@@H](NC(=O)[C@H](CCCCN)NC(=O)[C@H](C)N)[C@@H](C)O)[C@@H](C)CC)[C@@H](C)CC)C(C)C)C(=O)N[C@@H](C)C(=O)N[C@@H](CCCNC(=N)N)C(=O)N[C@@H](CCCCN)C(=O)N[C@@H](C)C(=O)N[C@@H](Cc1c[nH]c2ccccc12)C(=O)O [Syn-sordellicin-96] (H-AKTNRIAKELRRYIRKVGRIARKAW-OH; N-terminus and C-terminus assumed)			0.5	0.5	32	32	16	8	14.6		0.25	0.25
